Assay results taken from the supplement of paper PMC10307832.

Columns and labels:
Test in all cases: relative viability (nuclei count vs DMSO), 5 days (fraction); higher = more cells survive
NCI-H1650 = test system: NCI-H1650
In short: (§1)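 Nuclei were stained with Hoechst during a one-step fixation (final 0.05% Triton X-100, 1% formaldehyde, 1 ug/ml Hoechst) carried out 5 days after dosing, then counted on 4× images. The cells, lung cancer lines in 1536-well plates, had been dosed by pin tool the day after seeding with one drug alone or a fixed anchor-drug dose plus five library-drug doses (not always all listed) in √10 steps. Relative viability is the nuclei count in treated wells divided by that in vehicle wells, and each value is the median of duplicate plates.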

HCC-44 = test system: HCC-44
In short: as §1

NCI-H441 = test system: NCI-H441
In short: as §1

201T = test system: 201T
In short: as §1

NCI-H2085 = test system: NCI-H2085
In short: as §1

COR-L23 = test system: COR-L23
In short: as §1

NCI-H1563 = test system: NCI-H1563
In short: as §1

NCI-H2347 = test system: NCI-H2347
In short: as §1

NCI-H2405 = test system: NCI-H2405
In short: as §1

NCI-H2023 = test system: NCI-H2023
In short: as §1

NCI-H520 = test system: NCI-H520
In short: as §1

NCI-H3122 = test system: NCI-H3122
In short: as §1

NCI-H1734 = test system: NCI-H1734
In short: as §1

RERF-LC-KJ = test system: RERF-LC-KJ
In short: as §1

H3255 = test system: H3255
In short: as §1

NCI-H2170 = test system: NCI-H2170
In short: as §1

EPLC-272H = test system: EPLC-272H
In short: as §1

PC-14 = test system: PC-14
In short: as §1

NCI-H647 = test system: NCI-H647
In short: as §1

NCI-H1993 = test system: NCI-H1993
In short: as §1

LOU-NH91 = test system: LOU-NH91
In short: as §1

## CC1(C)CCC(c2ccc(Cl)cc2)=C(CN2CCN(c3ccc(C(=O)NS(=O)(=O)c4ccc(N[C@H](CCN5CCOCC5)CSc5ccccc5)c(S(=O)(=O)C(F)(F)F)c4)cc3)CC2)C1 [Navitoclax] + C[C@@H](Oc1cc(-c2cnn(C3CCNCC3)c2)cnc1N)c1c(Cl)ccc(F)c1Cl [Crizotinib] (partner 1 µM)
NCI-H1650; first compound 0.005 µM
  relative viability: 0.995
NCI-H1650; first compound 0.01581 µM
  relative viability: 1.13
NCI-H1650; first compound 0.05 µM
  relative viability: 1.17
NCI-H1650; first compound 0.1581 µM
  relative viability: 0.938
NCI-H1650; first compound 0.5 µM
  relative viability: 0.667
HCC-44; first compound 0.005 µM
  relative viability: 0.815
HCC-44; first compound 0.01581 µM
  relative viability: 0.835
HCC-44; first compound 0.05 µM
  relative viability: 0.794
HCC-44; first compound 0.1581 µM
  relative viability: 0.825
HCC-44; first compound 0.5 µM
  relative viability: 0.866
NCI-H441; first compound 0.005 µM
  relative viability: 0.657
NCI-H441; first compound 0.01581 µM
  relative viability: 0.865
NCI-H441; first compound 0.05 µM
  relative viability: 0.734
NCI-H441; first compound 0.1581 µM
  relative viability: 0.764
NCI-H441; first compound 0.5 µM
  relative viability: 0.621
201T; first compound 0.005 µM
  relative viability: 1.03
201T; first compound 0.01581 µM
  relative viability: 1.05
201T; first compound 0.05 µM
  relative viability: 0.975
201T; first compound 0.1581 µM
  relative viability: 1.04
201T; first compound 0.5 µM
  relative viability: 1.03
NCI-H2085; first compound 0.005 µM
  relative viability: 0.862
NCI-H2085; first compound 0.01581 µM
  relative viability: 0.838
NCI-H2085; first compound 0.05 µM
  relative viability: 0.861
NCI-H2085; first compound 0.1581 µM
  relative viability: 0.822
NCI-H2085; first compound 0.5 µM
  relative viability: 0.909
COR-L23; first compound 0.005 µM
  relative viability: 0.618
COR-L23; first compound 0.01581 µM
  relative viability: 0.712
COR-L23; first compound 0.05 µM
  relative viability: 0.686
COR-L23; first compound 0.1581 µM
  relative viability: 0.664
COR-L23; first compound 0.5 µM
  relative viability: 0.643
NCI-H1563; first compound 0.005 µM
  relative viability: 0.908
NCI-H1563; first compound 0.01581 µM
  relative viability: 0.92
NCI-H1563; first compound 0.05 µM
  relative viability: 0.897
NCI-H1563; first compound 0.1581 µM
  relative viability: 0.808
NCI-H1563; first compound 0.5 µM
  relative viability: 1.12
NCI-H2347; first compound 0.005 µM
  relative viability: 0.653
NCI-H2347; first compound 0.01581 µM
  relative viability: 0.602
NCI-H2347; first compound 0.05 µM
  relative viability: 0.2
NCI-H2347; first compound 0.1581 µM
  relative viability: 0.681
NCI-H2347; first compound 0.5 µM
  relative viability: 0.705
NCI-H2405; first compound 0.005 µM
  relative viability: 0.788
NCI-H2405; first compound 0.01581 µM
  relative viability: 0.948
NCI-H2405; first compound 0.05 µM
  relative viability: 0.824
NCI-H2405; first compound 0.1581 µM
  relative viability: 0.838
NCI-H2405; first compound 0.5 µM
  relative viability: 0.794
NCI-H2023; first compound 0.005 µM
  relative viability: 0.668
NCI-H2023; first compound 0.01581 µM
  relative viability: 0.65
NCI-H2023; first compound 0.05 µM
  relative viability: 0.694
NCI-H2023; first compound 0.1581 µM
  relative viability: 0.738
NCI-H2023; first compound 0.5 µM
  relative viability: 0.662
NCI-H520; first compound 0.005 µM
  relative viability: 0.751
NCI-H520; first compound 0.01581 µM
  relative viability: 0.715
NCI-H520; first compound 0.05 µM
  relative viability: 0.762
NCI-H520; first compound 0.1581 µM
  relative viability: 0.737
NCI-H520; first compound 0.5 µM
  relative viability: 0.79
NCI-H3122; first compound 0.005 µM
  relative viability: 0.254
NCI-H3122; first compound 0.01581 µM
  relative viability: 0.308
NCI-H3122; first compound 0.05 µM
  relative viability: 0.244
NCI-H3122; first compound 0.1581 µM
  relative viability: 0.306
NCI-H3122; first compound 0.5 µM
  relative viability: 0.292
NCI-H1734; first compound 0.005 µM
  relative viability: 0.705
NCI-H1734; first compound 0.01581 µM
  relative viability: 0.681
NCI-H1734; first compound 0.1581 µM
  relative viability: 0.785
NCI-H1734; first compound 0.5 µM
  relative viability: 0.693
RERF-LC-KJ; first compound 0.005 µM
  relative viability: 0.825
RERF-LC-KJ; first compound 0.01581 µM
  relative viability: 0.712
RERF-LC-KJ; first compound 0.05 µM
  relative viability: 0.789
RERF-LC-KJ; first compound 0.1581 µM
  relative viability: 0.796
RERF-LC-KJ; first compound 0.5 µM
  relative viability: 0.833
H3255; first compound 0.005 µM
  relative viability: 0.902
H3255; first compound 0.01581 µM
  relative viability: 1.06
H3255; first compound 0.05 µM
  relative viability: 0.807
H3255; first compound 0.1581 µM
  relative viability: 0.891
H3255; first compound 0.5 µM
  relative viability: 0.835
NCI-H2170; first compound 0.005 µM
  relative viability: 1.06
NCI-H2170; first compound 0.01581 µM
  relative viability: 1.28
NCI-H2170; first compound 0.05 µM
  relative viability: 1.21
NCI-H2170; first compound 0.1581 µM
  relative viability: 1.06
NCI-H2170; first compound 0.5 µM
  relative viability: 1.05
EPLC-272H; first compound 0.005 µM
  relative viability: 1.37
EPLC-272H; first compound 0.1581 µM
  relative viability: 0.99
EPLC-272H; first compound 0.5 µM
  relative viability: 1.08
PC-14; first compound 0.005 µM
  relative viability: 0.905
PC-14; first compound 0.01581 µM
  relative viability: 0.977
PC-14; first compound 0.05 µM
  relative viability: 0.951
PC-14; first compound 0.1581 µM
  relative viability: 0.886
PC-14; first compound 0.5 µM
  relative viability: 0.952
NCI-H647; first compound 0.005 µM
  relative viability: 1.16
NCI-H647; first compound 0.01581 µM
  relative viability: 1.18
NCI-H647; first compound 0.05 µM
  relative viability: 1.42
NCI-H647; first compound 0.1581 µM
  relative viability: 0.874
NCI-H647; first compound 0.5 µM
  relative viability: 0.896
NCI-H1993; first compound 0.005 µM
  relative viability: 0.89
NCI-H1993; first compound 0.01581 µM
  relative viability: 1
NCI-H1993; first compound 0.05 µM
  relative viability: 0.848
NCI-H1993; first compound 0.1581 µM
  relative viability: 0.853
NCI-H1993; first compound 0.5 µM
  relative viability: 0.866
LOU-NH91; first compound 0.005 µM
  relative viability: 0.766
LOU-NH91; first compound 0.01581 µM
  relative viability: 0.742
LOU-NH91; first compound 0.05 µM
  relative viability: 0.807
LOU-NH91; first compound 0.1581 µM
  relative viability: 0.731
LOU-NH91; first compound 0.5 µM
  relative viability: 0.711
